Test results taken from paper PMC10578352, “Identification of a Protein Arginine Methyltransferase 7 (PRMT7)/Protein Arginine Methyltransferase 9 (PRMT9) Inhibitor” (Journal of Medicinal Chemistry, 2023).

Assays:
Assay type in all cases: biochemical
[1] = molecular target: T1, MLL1/KMT2A (5 component complex) (Homo sapiens, UniProt Q03164); test: HotSpot KMT activity assay, MLL1; conditions: read-out: % MLL1 residual activity
T1 construct: MLL1 residues 3745–3969, C-terminus; His (N); purchased Reaction Biology Corporation
Description: (§1) ; MW = 35.4 kDa; Genbank Accession # NM_018489), or the human recombinant EZH2-containing five-member polycomb repressive complex 2 (including EZH2 residues 2–746, AEBP2 2–517, EED 2–441, RbAp48 2–425, SUZ12 2–739; all full-length; with N-terminal Flag-tag on EED and N-terminal His-tag on all others; MW = 333.8 kDa; Genbank Accession # NM_001203247, NM_001114176, NM_003797, NM_005610, NM_015355), or the human recombinant G9a (residues 913–1193, C-terminus; with an N-terminal His-tag; MW = 34.6 kDa; Genbank Accession # NM_006709.3), or the human recombinant MLL1 complex (including MLL1 residues 3745–3969, C-terminus, WDR5 22–334, C-terminus, RbBP5 1–538, C-terminus, ASH2L 2–534, C-terminus, DPY-30 1–99, C-terminus; N-terminal His-tag on all subunits; MW = 212.0 kDa; Genbank Accession # NM_005933, NM_017588, NM_005057, NM_001105214, NM_0325742), or the human recombinant SET7/9 (residues 2–366, C-terminus; with a N-terminal GST-tag and a C-terminal His-tag; MW = 68.5 kDa; Genbank Accession # NM_030648), or the human recombinant SMYD3 (residues 2–428, C-terminus; C-terminal His-tag; MW = 50.1 kDa; Genbank Accession # NM_001167740), or the human recombinant SUV39H2 (residues 46–410, C-terminus; N-terminal fusion protein with a C-terminal His-tag; MW = 98.8 kDa; GenBank Accession No. NM_001193424), or the human recombinant DOT1L (residues 1–416; N-terminal GST-tag; MW = 80.0 kDa; Genbank Accession # NM_032482) was added to a solution of the proper substrate (oligo nucleosomes for ASH1L, MLL1 complex, and DOT1L, final concentration 0.05 mg/mL; core histone for EZH2 complex and SET7/9, final concentration 0.05 mg/mL; histone H3 for SUV39H2, final concentration 5 μM; histone H3 1–21 for G9a, final concentration 2.5 μM) in freshly prepared reaction buffer (50 mM Tris-HCl (pH 8.5), 5 mM MgCl2, 50 mM NaCl, 1 mM DTT, 1 mM PMSF, 1% DMSO) and gently mixed. […] After incubation for 60 min at 30 °C, the reaction mixture was delivered to filter paper for detection (as assessed by scintillation). […] Values obtained for each compound are mean ± SD determined for two separate experiments.

ASH1L/KMT2H = molecular target: T2, ASH1L/KMT2H (Homo sapiens, UniProt Q9NR48); test: HotSpot KMT activity assay, ASH1L; conditions: read-out: % ASH1L residual activity
T2 construct: the human recombinant ASH1L (residues 2046–2330, with an N-terminal His-tag); His (N); purchased Reaction Biology Corporation
Description: as §1

PRMT1 = molecular target: T3, PRMT1 (Homo sapiens, UniProt Q99873); test: HotSpot radioisotope-based filter assay, PRMT1; conditions: Figure 2; from IC50 values of ref 31
T3 construct: PRMT1 (residues 2–371, C-terminus); with an N-terminal GST-tag; GST (N); purchased Reaction Biology Corporation
Experimental: Then, ^3H-SAM (final concentration of 1 μM) was delivered into the reaction mixture to initiate the reaction. After incubation for 60 min at 30 °C, the reaction mixture was delivered to filter-paper for detection (as assessed by scintillation). Data were analyzed using Excel and GraphPad Prism 6.0 software (GraphPad Software Inc., San Diego, CA) for IC50 curve fits using sigmoidal dose vs response - variable slope (four parameters) equations.

T3 sequence (Q99873 2-371): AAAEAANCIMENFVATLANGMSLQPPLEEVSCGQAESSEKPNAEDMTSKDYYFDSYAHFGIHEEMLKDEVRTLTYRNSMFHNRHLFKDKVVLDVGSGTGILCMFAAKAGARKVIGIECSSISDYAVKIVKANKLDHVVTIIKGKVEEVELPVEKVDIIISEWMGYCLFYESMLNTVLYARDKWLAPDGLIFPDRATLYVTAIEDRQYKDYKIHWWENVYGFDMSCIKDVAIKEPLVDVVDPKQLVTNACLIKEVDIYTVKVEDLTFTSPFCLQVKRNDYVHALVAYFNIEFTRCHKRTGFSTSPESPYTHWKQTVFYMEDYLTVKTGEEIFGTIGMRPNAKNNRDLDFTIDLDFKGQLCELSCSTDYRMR

Row | remaining activity at 10 µM ([1]; 10 μM) [%] | remaining activity at 100 µM ([1]; 100 μM) [%] | remaining activity at 10 µM (ASH1L/KMT2H; 10 μM) [%] | remaining activity at 100 µM (ASH1L/KMT2H; 100 μM) [%] | selectivity index for PRMT7 over PRMT1 (PRMT1) [fold] | SMILES
1 | 90.5 ± 2.83 | 76.9 ± 3.96 | 95.4 ± 1.49 | 109 ± 3.8 |  | COC(=O)c1cc(O)c2cc(NC(=O)NCCCNC(=N)NC[C@H]3O[C@@H](n4cnc5c(N)ncnc54)[C@H](O)[C@@H]3O)cc(C(F)(F)F)c2c1 [1j, Methyl 6-(3-(3-(3-(((2R,3S,4R,5R)-5-(6-Amino-9H-purin-9-yl)-3,4-dihydroxytetrahydrofuran-2-yl)methyl)guanidino)propyl)ureido)-4-hydroxy-8-(trifluoromethyl)-2-naphthoate]
2 |  |  |  |  | 38 | COC(=O)c1cc(O)c2cc(NC(=O)NCCCCCNC(=N)NC[C@H]3O[C@@H](n4cnc5c(N)ncnc54)[C@H](O)[C@@H]3O)ccc2c1 [1c]
